In patent publication US8435576B2, “Use of cocoa polyphenols for treating a prostate hyperplasia, a specific cocoa extract and applications” (Barry Callebaut AG, priority 2005, dated 2013):
Marks after values point to notes of the source that are not given here.

Columns and labels:
[1] = tested on: RWEP-1 cells; test: Cell growth and viability (neutral red / sulforhodamine B) and morphology; assay type: cell-based, human
Method: Each product (1 to 5) was applied for 1 to 72 hours, at various concentrations. The number of cells was compared with a control, namely cells cultured in the absence of the test compound.
The RPMI-1640 medium, the fetal calf serum and the L-glutamine were supplied by Gibco BRL (Cergy Pontoise, France). The cell cultures were replaced every 5 days to ensure exponential growth. The normal human prostate cells RWEP-1 were supplied by the American Type Culture Collection (ATCC, Rockville, Md.). The cells were maintained in the form of a monolayer culture according to the usual techniques, in […] flasks, at 37° C., in an atmosphere containing 5% CO2 and at 95% humidity, in a medium free of serum and of keratinocytes, supplemented with 2.5 μg of recombinant human EGF and 25 mg of calf pituitary extract. The medium was supplied by Gibco BRL (Cergy Pontoise, France).
Five products were tested for this study and were stored protected from light, at +4° C. The β-sitosterol (product 1), obtained from Sigma Chemicals, was first dissolved in absolute ethanol, up to a final concentration of 24.1 mM. Product 2, supplied by Barry Callebaut, France, is a defatted cocoa extract containing 35.5% polyphenols and 0.081% β-sitosterol. Product 3 was reconstituted from products 1 and 2 and contained 35.5% polyphenols and 0.72% β-sitosterol. Products 4 and 5 were manufactured by Barry Callebaut, France. The composition of product 4 is unknown, and contains no β-sitosterol. Product 5 contains 35.27% polyphenols and 0.72% β-sitosterol. Products 2, 3, 4 and 5 were first dissolved in whole medium. As regards products 2, 4 and 5, the total polyphenols of the cocoa extracts originate from different countries.
Just before use, the final concentrations of products (table 1) used are prepared for the various experiments by means of stock solutions, by diluting the stock solution in whole medium. 64.2 μM of β-sitosterol is the maximum dose used in this solubility range and in the physiological range (4 to 70 μM). The absolute ethanol is at a constant concentration of 0.26% in the solvent-based control, in the negative control and in the 8 test concentrations. The ratios of the β-sitosterol and of the polyphenols for products 2, 3 and 5 are as follows: • Product 2:2:1000 • Product 3:2:100 • Product 5:2:100
The cells were inoculated on 96-well plates at an initial density of 15 000 cells/well for DU145, at an initial density of 30 000 cells/well for 22Rv1 and at an initial density of 25 000 cells/well for RWEP-1, with 200 μL of medium per well. The cell density was optimized as a function of the time required to double the population of cells, in order to obtain a significant measurement of the Optical Density (OD) and to be able to compare the various cells lines. After 24 hours, in order to ensure uniform fixing of the cells from the start of the experiments, the products were added to the cell cultures at various concentrations and at various times. After incubation with the products, the growth and viability of the cells was measured using neutral red (NR) and sulforhodamine B (SRB) combined (In Cytotox, Vandoeuvre, France). The absorption of the vital stain NR was used by the lysosomes/endosomes and by the vacuoles of the live cells as a quantitative indication of the number and viability of the cells after treatment with a chemical test. The anionic stain SRB made it possible to quantify the viable cells via measurement of the protein content of the cells.
The cytotoxicity was evaluated 1, 3, 6, 24, 48 and 72 hours after incubating the 22Rv1, RWEP-1 and DU145 cells with the products. The cells were washed with 200 μl of washing solution in order to remove the culture medium supplemented with the products. 200 μL of neutral red base medium was added and incubated with the cells at 37° C. for 3 hours. The neutral red base medium was then removed and the cells were washed twice with phosphate-buffered physiological saline (PBS). […]

[2] = tested on: human prostate carcinoma (22Rv1); test: Cell proliferation test, neutral red release method, media M1-M3; assay type: cell-based; conditions: 22Rv1, media M1, M2 or M3, 24 hours
Method: (§1) • Healthy human prostate epithelial cells (RWEP-1, ATCC No. CRL-11609) • Human prostate carcinoma (22Rv1 ATCC No. CRL-2505) Culture: • 37° C., 5% CO2, 95% humidity
(§2) • Keratinocyte-serum free medium (KSFM) (Invitrogen, 17005-042) • Epidermal Growth Factor, 5 ng/ml (Invitrogen, 10450-013) • Bovine pituitary extract, 0.05 mg/ml (Invitrogen, 13028-014) • Penicillin 50 IU/ml-streptomycin 50 μg/ml 10 (v/v, Invitrogen 15070-063) Medium M2=Medium recommended for tumor cells (22Rv1): • RPMI 1640 medium (Invitrogen, 31870-025) • Decomplemented fetal calf serum, 10% (v/v Invitrogen 10270-098) • L-Glutamine, 1% (v/v Invitrogen 25030-024) • Penicillin 50 IU/ml-streptomycin 50 μg/ml 1 (v/v, • Invitrogen 15070-063) Medium M3=Mixed medium: • Whole keratinocyte-serum free medium, 50% (v/v) • Whole RPMI 1640 medium, 50% (v/v) […]
(§3) After 24 hours of growth, the healthy and tumoral cell lines were incubated in the presence of β-sitosterol (reference product) at 8 concentrations (see paragraph b) above) or of CPE at 8 concentrations (see paragraph b) above). […] The amount of stain incorporated into the cells is measured by spectro-photometric reading at 540 nm and is directly pro-portional to the number of live cells. The results were expressed as a percentage of inhibition relative to the untreated control.

[3] = tested on: healthy human prostate epithelial cells (RWEP-1); test: as above; assay type: cell-based; conditions: RWEP-1, media M1, M2 or M3, 24 hours
Method: as §1, §2, §3

CC[C@H](CC[C@@H](C)[C@H]1CC[C@H]2[C@@H]3CC=C4C[C@@H](O)CC[C@]4(C)[C@H]3CC[C@]12C)C(C)C [β-sitosterol]
max. inhibition ([1]; 24 h, RWEP1, NR): 15%^b | max. inhibition ([1]; 24 h, RWEP1, SRB): 9% | max. inhibition ([1]; 48 h, RWEP1, NR): 29% | max. inhibition ([1]; 48 h, RWEP1, SRB): 48% | max. inhibition ([1]; 72 h, RWEP1, NR): 11% | max. inhibition ([1]; 72 h, RWEP1, SRB): 26% | IC50 ([1]; RWEP-1, between 1 and 72 hours of treatment): never reached | Inhibition of proliferation [2]: weak inhibition of proliferation | Inhibition of proliferation [3]: weak inhibition of proliferation
